Assay results from the supplement of paper PMC8967900.

Columns and labels:
Experiment in all cases: selective drug sensitivity score (sDSS, relative to normal bone marrow) (sDSS (score)); higher = more potent and effective on the cell line relative to normal bone marrow cells
Conditions in all cases: 72 h
ALL-SIL = system: ALL-SIL
COG-LL-332h = system: COG-LL-332h
P12-ICHIKAWA = system: P12-ICHIKAWA
COG-LL-394h = system: COG-LL-394h
KASUMI-2 = system: KASUMI-2
NALM-6 = system: NALM-6
COG-LL-317 = system: COG-LL-317
LC4-1 = system: LC4-1
JURKAT = system: JURKAT
CCRF-CEM = system: CCRF-CEM
MHH-CALL-3 = system: MHH-CALL-3
NALM-16 = system: NALM-16
DND-41 = system: DND-41
ALL-PO = system: ALL-PO
KASUMI-10 = system: KASUMI-10
380 = system: 380
697 = system: 697
RPMI-8402 = system: RPMI-8402
RCH-ACV = system: RCH-ACV
COG-LL-402h = system: COG-LL-402h
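Also: ALL cell lines in 384-well plates, five doses spanning 10,000-fold, each plate scaled between vehicle and 100 µmol/L benzalkonium chloride controls, sDSS an adapted area-under-curve metric.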

## Cn1cc(-c2ccc(F)c(C(F)(F)F)c2)nc1C1CCN(c2ncnc3[nH]ncc23)CC1 (top concentration 10000 nM)
ALL-SIL
  selective drug sensitivity score: 0.06
COG-LL-332h
  selective drug sensitivity score: 1.56
P12-ICHIKAWA
  selective drug sensitivity score: -0.14
COG-LL-394h
  selective drug sensitivity score: -0.14
KASUMI-2
  selective drug sensitivity score: 13.3
NALM-6
  selective drug sensitivity score: -0.14
COG-LL-317
  selective drug sensitivity score: 1.76
LC4-1
  selective drug sensitivity score: 5.56
JURKAT
  selective drug sensitivity score: -0.14
CCRF-CEM
  selective drug sensitivity score: 0.86
MHH-CALL-3
  selective drug sensitivity score: 5.16
NALM-16
  selective drug sensitivity score: -0.14
DND-41
  selective drug sensitivity score: 1.16
ALL-PO
  selective drug sensitivity score: 0.66
KASUMI-10
  selective drug sensitivity score: -0.14
380
  selective drug sensitivity score: 12.3
697
  selective drug sensitivity score: 0.76
RPMI-8402
  selective drug sensitivity score: -0.14
RCH-ACV
  selective drug sensitivity score: 8.26
COG-LL-402h
  selective drug sensitivity score: -0.14

## O=C(Nc1ccc2[nH]nc(-c3ccncc3)c2c1)[C@@H]1CCN(CC(=O)N2CCN(c3ccc(-c4ncccn4)cc3)CC2)C1 (top concentration 10000 nM)
ALL-SIL
  selective drug sensitivity score: 0.16
COG-LL-332h
  selective drug sensitivity score: -0.54
P12-ICHIKAWA
  selective drug sensitivity score: 1.06
COG-LL-394h
  selective drug sensitivity score: -0.14
KASUMI-2
  selective drug sensitivity score: 6.16
NALM-6
  selective drug sensitivity score: 4.76
COG-LL-317
  selective drug sensitivity score: -2.04
LC4-1
  selective drug sensitivity score: 4.26
JURKAT
  selective drug sensitivity score: -2.04
CCRF-CEM
  selective drug sensitivity score: -0.54
MHH-CALL-3
  selective drug sensitivity score: 7.16
NALM-16
  selective drug sensitivity score: -4.24
DND-41
  selective drug sensitivity score: 4.46
ALL-PO
  selective drug sensitivity score: 3.76
KASUMI-10
  selective drug sensitivity score: -0.74
380
  selective drug sensitivity score: 1.66
697
  selective drug sensitivity score: 0.66
RPMI-8402
  selective drug sensitivity score: -1.64
RCH-ACV
  selective drug sensitivity score: -0.44
COG-LL-402h
  selective drug sensitivity score: 1.76

## CC(C)(C)c1cc(NC(=O)Nc2ccc(Oc3ccnc4[nH]c(=O)cnc34)cc2F)n(-c2ccccc2)n1 (top concentration 25000 nM)
ALL-SIL
  selective drug sensitivity score: 16.1
COG-LL-332h
  selective drug sensitivity score: 2.02
P12-ICHIKAWA
  selective drug sensitivity score: -4.58
COG-LL-394h
  selective drug sensitivity score: 0.82
KASUMI-2
  selective drug sensitivity score: -1.38
NALM-6
  selective drug sensitivity score: -0.98
COG-LL-317
  selective drug sensitivity score: -2.18
LC4-1
  selective drug sensitivity score: -1.48
JURKAT
  selective drug sensitivity score: -1.48
CCRF-CEM
  selective drug sensitivity score: -2.18
MHH-CALL-3
  selective drug sensitivity score: -3.58
NALM-16
  selective drug sensitivity score: -2.78
DND-41
  selective drug sensitivity score: -0.78
ALL-PO
  selective drug sensitivity score: 5.72
KASUMI-10
  selective drug sensitivity score: 5.62
380
  selective drug sensitivity score: -4.68
697
  selective drug sensitivity score: 4.72
RPMI-8402
  selective drug sensitivity score: -3.18
RCH-ACV
  selective drug sensitivity score: 3.82
COG-LL-402h
  selective drug sensitivity score: -1.78

## Nc1ncnc2c1nc(N)n2[C@@H]1O[C@H](CO)[C@@H](O)[C@H]1O [8-amino-adenosine] (top concentration 50000 nM)
ALL-SIL
  selective drug sensitivity score: 2.68
COG-LL-332h
  selective drug sensitivity score: 3.18
P12-ICHIKAWA
  selective drug sensitivity score: 0.38
COG-LL-394h
  selective drug sensitivity score: 6.58
KASUMI-2
  selective drug sensitivity score: 6.08
NALM-6
  selective drug sensitivity score: 6.68
COG-LL-317
  selective drug sensitivity score: 3.28
LC4-1
  selective drug sensitivity score: 7.78
JURKAT
  selective drug sensitivity score: -5.42
CCRF-CEM
  selective drug sensitivity score: 6.48
MHH-CALL-3
  selective drug sensitivity score: 5.38
NALM-16
  selective drug sensitivity score: 4.48
DND-41
  selective drug sensitivity score: -0.62
ALL-PO
  selective drug sensitivity score: 5.48
KASUMI-10
  selective drug sensitivity score: 3.28
380
  selective drug sensitivity score: 9.38
697
  selective drug sensitivity score: 6.48
RPMI-8402
  selective drug sensitivity score: 0.18
RCH-ACV
  selective drug sensitivity score: 6.68
COG-LL-402h
  selective drug sensitivity score: 5.78

## CC(C)[C@@H](CS(=O)(=O)C(C)C)N1C(=O)[C@@](C)(CC(=O)O)C[C@H](c2cccc(Cl)c2)[C@H]1c1ccc(Cl)cc1 [AMG-232] (top concentration 10000 nM)
ALL-SIL
  selective drug sensitivity score: -8.14
COG-LL-332h
  selective drug sensitivity score: 9.26
P12-ICHIKAWA
  selective drug sensitivity score: -8.24
COG-LL-394h
  selective drug sensitivity score: 8.76
KASUMI-2
  selective drug sensitivity score: 12.3
NALM-6
  selective drug sensitivity score: 7.96
COG-LL-317
  selective drug sensitivity score: 15.1
LC4-1
  selective drug sensitivity score: 11.3
JURKAT
  selective drug sensitivity score: -8.34
CCRF-CEM
  selective drug sensitivity score: -7.34
MHH-CALL-3
  selective drug sensitivity score: 12.6
NALM-16
  selective drug sensitivity score: -10.2
DND-41
  selective drug sensitivity score: -8.84
ALL-PO
  selective drug sensitivity score: -6.94
KASUMI-10
  selective drug sensitivity score: 10.1
380
  selective drug sensitivity score: 13
697
  selective drug sensitivity score: 9.06
RPMI-8402
  selective drug sensitivity score: -9.14
RCH-ACV
  selective drug sensitivity score: 12.1
COG-LL-402h
  selective drug sensitivity score: 9.26

## CC(C)[C@H](C(=O)Nc1ccc(C(=O)NO)cc1)c1ccccc1 [AR-42] (top concentration 10000 nM)
ALL-SIL
  selective drug sensitivity score: 10.2
COG-LL-332h
  selective drug sensitivity score: 4.68
P12-ICHIKAWA
  selective drug sensitivity score: 8.28
COG-LL-394h
  selective drug sensitivity score: 2.08
KASUMI-2
  selective drug sensitivity score: 16
NALM-6
  selective drug sensitivity score: 4.48
COG-LL-317
  selective drug sensitivity score: 6.48
LC4-1
  selective drug sensitivity score: 6.88
JURKAT
  selective drug sensitivity score: 5.28
CCRF-CEM
  selective drug sensitivity score: 6.68
MHH-CALL-3
  selective drug sensitivity score: 14.3
NALM-16
  selective drug sensitivity score: 1.68
DND-41
  selective drug sensitivity score: 6.98
ALL-PO
  selective drug sensitivity score: 10.7
KASUMI-10
  selective drug sensitivity score: 6.88
380
  selective drug sensitivity score: 10.1
697
  selective drug sensitivity score: 9.58
RPMI-8402
  selective drug sensitivity score: 8.18
RCH-ACV
  selective drug sensitivity score: 13.9
COG-LL-402h
  selective drug sensitivity score: 10.8

## O=C(Nc1c[nH]nc1-c1nc2ccc(CN3CCOCC3)cc2[nH]1)NC1CC1 [AT9283] (top concentration 1000 nM)
ALL-SIL
  selective drug sensitivity score: 15.6
COG-LL-332h
  selective drug sensitivity score: 11.7
P12-ICHIKAWA
  selective drug sensitivity score: 13
COG-LL-394h
  selective drug sensitivity score: 1.02
KASUMI-2
  selective drug sensitivity score: 6.22
NALM-6
  selective drug sensitivity score: 6.82
COG-LL-317
  selective drug sensitivity score: 14.2
LC4-1
  selective drug sensitivity score: 12.4
JURKAT
  selective drug sensitivity score: -1.38
CCRF-CEM
  selective drug sensitivity score: 12.5
MHH-CALL-3
  selective drug sensitivity score: 10.4
NALM-16
  selective drug sensitivity score: -0.68
DND-41
  selective drug sensitivity score: -0.68
ALL-PO
  selective drug sensitivity score: 6.32
KASUMI-10
  selective drug sensitivity score: 8.42
380
  selective drug sensitivity score: 11.3
697
  selective drug sensitivity score: 12.1
RPMI-8402
  selective drug sensitivity score: 4.32
RCH-ACV
  selective drug sensitivity score: 6.02
COG-LL-402h
  selective drug sensitivity score: 7.72

## CCN(CCO)CCCOc1ccc2c(Nc3cc(CC(=O)Nc4cccc(F)c4)[nH]n3)ncnc2c1 [AZD1152-HQPA] (top concentration 1000 nM)
ALL-SIL
  selective drug sensitivity score: 23.4
COG-LL-332h
  selective drug sensitivity score: 21.6
P12-ICHIKAWA
  selective drug sensitivity score: 19
COG-LL-394h
  selective drug sensitivity score: 3.24
KASUMI-2
  selective drug sensitivity score: 6.44
NALM-6
  selective drug sensitivity score: 8.94
COG-LL-317
  selective drug sensitivity score: 19.8
LC4-1
  selective drug sensitivity score: 23.2
JURKAT
  selective drug sensitivity score: -0.26
CCRF-CEM
  selective drug sensitivity score: 16.9
MHH-CALL-3
  selective drug sensitivity score: 5.24
NALM-16
  selective drug sensitivity score: 0.34
DND-41
  selective drug sensitivity score: -1.46
ALL-PO
  selective drug sensitivity score: 7.64
KASUMI-10
  selective drug sensitivity score: 16
380
  selective drug sensitivity score: 20.8
697
  selective drug sensitivity score: 16.5
RPMI-8402
  selective drug sensitivity score: 13
RCH-ACV
  selective drug sensitivity score: 14
COG-LL-402h
  selective drug sensitivity score: 18.4

## Cc1[nH]nc(C(F)(F)F)c1Cc1sc2c(c1C(=O)N1C[C@](C)(O)CO1)c(=O)n(C)c(=O)n2C(C)C [AZD3965] (top concentration 1000 nM)
ALL-SIL
  selective drug sensitivity score: 0
COG-LL-332h
  selective drug sensitivity score: 0
P12-ICHIKAWA
  selective drug sensitivity score: 0
COG-LL-394h
  selective drug sensitivity score: 0
KASUMI-2
  selective drug sensitivity score: 3.8
NALM-6
  selective drug sensitivity score: 11.1
COG-LL-317
  selective drug sensitivity score: 0.3
LC4-1
  selective drug sensitivity score: 1.5
JURKAT
  selective drug sensitivity score: 0
CCRF-CEM
  selective drug sensitivity score: 0.3
MHH-CALL-3
  selective drug sensitivity score: 0
NALM-16
  selective drug sensitivity score: 0
DND-41
  selective drug sensitivity score: 0
ALL-PO
  selective drug sensitivity score: 3.8
KASUMI-10
  selective drug sensitivity score: 0
380
  selective drug sensitivity score: 4.2
697
  selective drug sensitivity score: 3.6
RPMI-8402
  selective drug sensitivity score: 12.6
RCH-ACV
  selective drug sensitivity score: 0
COG-LL-402h
  selective drug sensitivity score: 0
